From US10213450B2, “Combination of biologically active substances for treatment of hyperglycaemic disorders” (BioActive Food GmbH, priority 2014, dated 2019)

Experiments:
[1] = biological target: T1, lactase phlorizin hydrolase (LPH) (Homo sapiens, UniProt P09848); assay: In vitro inhibition of LPH, phlorizin dihydrate as substrate, released glucose measured; format: biochemical
T1 construct: tissue of the human small intestine (0.6 mg/ml) expressing the LPH was used; from tissue; host or cells: human small intestine tissue
Description: Various quercetin and kaempferol derivates were tested in vitro as inhibitors of lactase phlorizin hydrolase (LPH). The testing was carried out according to Amiri et al. (2012, J Inherit Metab Dis, 35(6): 949-54). Here, tissue of the human small intestine (0.6 mg/ml) expressing the LPH was used. Phlorizin dihydrate served as the substrate. The released glucose was measured using a standard assay (Chu & Cheung, 1978, Clin Biochem, 11(4): 187-9).

[2] = biological target: T2, human SGLT1 (Homo sapiens, UniProt P13866); assay: Ex vivo model: incubation with LPH-expressing human small intestine brush border membranes, then SGLT1 activity of supernatants by two-electrode voltage-clamp in Xenopus oocytes; format: cell-based; conditions: LPH inhibitor 10 μg/ml alone
T2 construct: expressed in transfected cells; host or cells: Xenopus oocytes
T2 sequence (P13866 1-664): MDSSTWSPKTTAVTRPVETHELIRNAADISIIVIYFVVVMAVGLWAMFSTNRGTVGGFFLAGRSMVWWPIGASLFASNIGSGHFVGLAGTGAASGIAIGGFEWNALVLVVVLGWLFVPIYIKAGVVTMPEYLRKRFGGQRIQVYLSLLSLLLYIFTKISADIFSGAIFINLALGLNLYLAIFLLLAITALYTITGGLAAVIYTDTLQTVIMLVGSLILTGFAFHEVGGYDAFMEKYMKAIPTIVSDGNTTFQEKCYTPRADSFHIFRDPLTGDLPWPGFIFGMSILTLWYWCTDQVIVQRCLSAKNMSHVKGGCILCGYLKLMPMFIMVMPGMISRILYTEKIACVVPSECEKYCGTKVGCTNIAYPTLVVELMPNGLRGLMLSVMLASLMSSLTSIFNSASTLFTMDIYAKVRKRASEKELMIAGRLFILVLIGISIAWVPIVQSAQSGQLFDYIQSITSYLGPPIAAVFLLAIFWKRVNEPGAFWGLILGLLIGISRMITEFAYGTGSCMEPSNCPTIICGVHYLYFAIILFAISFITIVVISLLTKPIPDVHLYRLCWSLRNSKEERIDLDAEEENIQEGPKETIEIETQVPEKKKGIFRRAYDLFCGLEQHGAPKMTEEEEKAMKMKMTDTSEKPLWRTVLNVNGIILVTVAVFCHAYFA
Description: The effect of a combination of phlorizin and a LPH inhibitor on the uptake of glucose by the SGLT 1 transporter was tested with an ex vivo model that simulates the situation in the human intestine. The ex vivo test model uses tissue from the human small intestine which expresses the lactase phlorizin hydrolase (LPH) and is thus able to cleave phlorizin and other glycosides. Subsequently, the reaction batches that had been pre-processed in this way were tested in an in vitro assay for their inhibitory effect on the SGLT1 transporter.
In summary, so-called “brush border membranes” were prepared from the small intestine and incubated in an appropriate buffer with phlorizin and/or the respective LPH inhibitor for 90 minutes.
Here, Xenopus oocytes were used which express the human SGLT1. The transport of glucose by SGLT1 can be measured because the combined transport of glucose and sodium by SGLT1 causes a current through the oocyte membrane. This current is determined electrophysiologically by a “two-electrode voltage-clamp” method. In this model, a reduction in the activity of the SGLT1 also results in a reduction of current across the cell membrane.

T1 sequence (P09848 869-1927): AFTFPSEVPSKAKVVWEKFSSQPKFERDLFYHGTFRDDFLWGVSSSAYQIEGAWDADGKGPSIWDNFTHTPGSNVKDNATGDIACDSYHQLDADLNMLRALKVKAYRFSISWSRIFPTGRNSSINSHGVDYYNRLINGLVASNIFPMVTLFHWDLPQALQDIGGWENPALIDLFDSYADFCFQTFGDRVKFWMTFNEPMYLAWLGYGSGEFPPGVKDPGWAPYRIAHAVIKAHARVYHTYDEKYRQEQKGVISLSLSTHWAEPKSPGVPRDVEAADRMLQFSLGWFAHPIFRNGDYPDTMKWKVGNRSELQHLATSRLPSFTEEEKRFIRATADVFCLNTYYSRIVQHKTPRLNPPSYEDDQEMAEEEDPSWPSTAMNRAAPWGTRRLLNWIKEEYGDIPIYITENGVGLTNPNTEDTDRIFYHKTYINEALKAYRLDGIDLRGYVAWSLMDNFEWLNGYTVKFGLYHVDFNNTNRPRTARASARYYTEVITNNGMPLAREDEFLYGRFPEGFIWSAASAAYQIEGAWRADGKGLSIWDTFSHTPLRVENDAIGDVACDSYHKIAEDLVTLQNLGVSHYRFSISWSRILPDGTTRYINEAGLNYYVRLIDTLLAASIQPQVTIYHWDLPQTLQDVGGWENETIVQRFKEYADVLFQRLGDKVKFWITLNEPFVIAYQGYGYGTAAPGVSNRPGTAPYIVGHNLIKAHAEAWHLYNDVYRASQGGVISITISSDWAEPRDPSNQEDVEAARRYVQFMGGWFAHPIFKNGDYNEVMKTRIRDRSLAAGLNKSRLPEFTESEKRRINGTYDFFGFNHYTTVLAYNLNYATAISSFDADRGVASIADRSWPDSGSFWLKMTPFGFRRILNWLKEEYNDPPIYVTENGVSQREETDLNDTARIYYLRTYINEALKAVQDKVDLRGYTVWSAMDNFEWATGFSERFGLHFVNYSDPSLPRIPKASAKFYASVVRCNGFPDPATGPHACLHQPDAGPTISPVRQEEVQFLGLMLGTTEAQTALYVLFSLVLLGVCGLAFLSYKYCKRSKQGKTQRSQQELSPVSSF

inhibition of the LPH ([1]; concentration of 50 mg/ml (as printed in text))	Glucose uptake, inhibition ([2]; Batch A)	Glucose uptake, inhibition ([2]; Batch B)	inhibition at 100 µg/mL ([1]; 100 μg/ml inhibitor (stated in cell))	SMILES
about 70%	2%	2.5%	–	O=c1c(O)c(-c2ccc(O)c(O)c2)oc2cc(OC3O[C@H](CO)[C@@H](O)[C@H](O)[C@H]3O)cc(O)c12 (stereo partly shown) [No. 3, 3,3′,4′,5,7-pentahydroxy flavone-7-glucoside]
–	–	–	13.7%	O=c1c(OC2O[C@H](CO)[C@@H](O)[C@H](O)[C@H]2O)c(-c2ccc(O)c(O)c2)oc2cc(O)cc(O)c12 (stereo partly shown) [compound 2]
